From ChEMBL document CHEMBL1201862, “PubChem BioAssay data set” (2004)
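Compound exposure: 48 hours, 5 concentrations, 96-well plates. At the GI50, growth is halved.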 Calls of active or inactive are those of the source. Cut-off read from the data, not from the text of the source: active = GI50 up to about 1.1 µM and inactive = higher.

Experiments:
Test in all cases: growth of human tumour cells (NCI), 48 h
[1] = system: UACC-62
[2] = system: 786-0
[3] = system: SK-MEL-5
[4] = system: HT-29
[5] = system: NCI-H522
[6] = system: CAKI-1
[7] = system: NCI-H460
[8] = system: Malme-3M
[9] = system: DU-145
[10] = system: U-251
[11] = system: SNB-75
[12] = system: SF-268
[13] = system: TK-10
[14] = system: HCT-15
[15] = system: NCI-H226
[16] = system: M14
[17] = system: HCT-116
[18] = system: IGROV-1
[19] = system: COLO 205
[20] = system: RXF 393
[21] = system: Hs-578T
[22] = system: NCI/ADR-RES
[23] = system: OVCAR-4
[24] = system: T47D
[25] = system: UO-31
[26] = system: SK-MEL-2
[27] = system: CCRF-CEM
[28] = system: UACC-257
[29] = system: SK-MEL-28
[30] = system: A549
[31] = system: SN12C
[32] = system: LOX IMVI
[33] = system: HCC 2998
[34] = system: KM12
[35] = system: HOP-62
[36] = system: MDA-MB-435
[37] = system: SR
[38] = system: MCF7
[39] = system: OVCAR-3
[40] = system: SK-OV-3
[41] = system: SF-295
[42] = system: MDA-MB-231
[43] = system: A498
[44] = system: EKVX
[45] = system: ACHN
[46] = system: MDA-N
[47] = system: OVCAR-8
[48] = system: OVCAR-5
[49] = system: HOP-92
[50] = system: PC-3
[51] = system: NCI-H23
[52] = system: SNB-19
[53] = system: SF-539
[54] = system: RPMI-8226
[55] = system: K562
[56] = system: MOLT-4
[57] = system: HL-60
[58] = system: SW-620
[59] = system: BT-549
[60] = system: DMS-273
[61] = system: LXFL 529
[62] = system: SNB-78
[63] = system: DMS-114
[64] = system: DLD-1

**Q.** What does the source list for `O=c1c2ncn(C3CCCCO3)c2n(-c2ccccc2)c(=S)n1-c1ccccc1` (stereo not given)?
**A.** GI50 [1]: 18.5 µM (inactive); GI50 [2]: 16.4 µM (inactive); GI50 [3]: > 74.3 µM (inactive); GI50 [4]: > 76.4 µM (inactive); GI50 [5]: 39.6 µM (inactive); GI50 [6]: 42.4 µM (inactive); GI50 [7]: > 54.8 µM (inactive); GI50 [8]: > 41.5 µM (inactive); GI50 [9]: > 71.3 µM (inactive); GI50 [10]: 14.5 µM (inactive); GI50 [11]: 7.69 µM (inactive); GI50 [12]: 11 µM (inactive); GI50 [13]: 31.9 µM (inactive); GI50 [14]: 55.3 µM; GI50 [15]: 25.9 µM (inactive); GI50 [16]: > 92.5 µM (inactive); GI50 [17]: 45.5 µM (inactive); GI50 [18]: 28.6 µM (inactive); GI50 [19]: > 71.4 µM (inactive); GI50 [20]: 7.8 µM (inactive); GI50 [21]: 10.1 µM (inactive); GI50 [22]: 30.1 µM (inactive); GI50 [23]: 40.4 µM (inactive); GI50 [24]: 2.31 µM (inactive); GI50 [25]: 35.1 µM (inactive); GI50 [26]: 39.2 µM (inactive); GI50 [27]: > 83 µM (inactive); GI50 [28]: 61.9 µM (inactive); GI50 [29]: > 68.1 µM (inactive); GI50 [30]: 78 µM (inactive); GI50 [31]: 56.6 µM (inactive); GI50 [32]: 56.5 µM (inactive); GI50 [33]: > 70 µM (inactive); GI50 [34]: > 76.4 µM (inactive); GI50 [35]: 10.4 µM (inactive); GI50 [36]: > 67.6 µM (inactive); GI50 [37]: > 4.65 µM (inactive); GI50 [38]: 49.5 µM (inactive); GI50 [39]: > 61.9 µM (inactive); GI50 [40]: 20.7 µM (inactive); GI50 [41]: 16.1 µM (inactive); GI50 [42]: 26.2 µM (inactive); GI50 [43]: 30.7 µM (inactive); GI50 [44]: 39.5 µM (inactive); GI50 [45]: 45.1 µM (inactive); GI50 [46]: > 66.1 µM (inactive); GI50 [47]: 19 µM (inactive); GI50 [48]: > 61.1 µM (inactive); GI50 [49]: 9.91 µM (inactive); GI50 [50]: 80.4 µM (inactive); GI50 [51]: 31.4 µM (inactive); GI50 [52]: 21.5 µM (inactive); GI50 [53]: 10.8 µM (inactive); GI50 [54]: > 52.7 µM (inactive); GI50 [55]: > 68.7 µM (inactive); GI50 [56]: > 100 µM (inactive); GI50 [57]: > 64.4 µM (inactive); GI50 [58]: > 65.9 µM (inactive); GI50 [59]: 23 µM (inactive)

**Q.** With `NC(=O)c1cn(C2OC(CO)C(O)C2O)c2ncnc(N)c12` (stereo not given) as the compound, how does the GI50 [10] read?
**A.** Its GI50 is 0.07 µM (active).

**Q.** What about the GI50 [60] of the same compound?
**A.** The GI50 was 0.0213 µM (active).

**Q.** What about the GI50 [25] of the same compound?
**A.** Its GI50 is 0.07 µM (active).

**Q.** And the GI50 [38]?
**A.** Its GI50 is 0.07 µM (active).

**Q.** What about the GI50 [43] of the same compound?
**A.** The GI50 was 0.0724 µM (active).

**Q.** What about the GI50 [44] of the same compound?
**A.** Its GI50 is 0.0453 µM (active).

**Q.** What does the source list for `CCSc1nc2cccc([N+](=O)[O-])c2n1CC`?
**A.** GI50 [1]: > 100 µM (inactive); GI50 [3]: > 100 µM (inactive); GI50 [4]: > 100 µM (inactive); GI50 [5]: > 100 µM (inactive); GI50 [6]: > 100 µM (inactive); GI50 [7]: > 100 µM (inactive); GI50 [10]: > 100 µM (inactive); GI50 [11]: > 100 µM (inactive); GI50 [13]: > 100 µM (inactive); GI50 [15]: > 100 µM (inactive); GI50 [16]: > 100 µM (inactive); GI50 [60]: > 100 µM (inactive); GI50 [18]: > 100 µM (inactive); GI50 [19]: > 100 µM (inactive); GI50 [20]: > 100 µM (inactive); GI50 [23]: > 100 µM (inactive); GI50 [27]: > 100 µM (inactive); GI50 [28]: > 100 µM (inactive); GI50 [29]: > 100 µM (inactive); GI50 [30]: > 100 µM (inactive); GI50 [32]: > 100 µM (inactive); GI50 [33]: > 100 µM (inactive); GI50 [34]: > 100 µM (inactive); GI50 [61]: > 100 µM (inactive); GI50 [62]: > 100 µM (inactive); GI50 [39]: > 100 µM (inactive); GI50 [40]: > 100 µM (inactive); GI50 [44]: > 100 µM (inactive); GI50 [47]: > 100 µM (inactive); GI50 [49]: > 100 µM (inactive); GI50 [51]: > 100 µM (inactive); GI50 [52]: > 100 µM (inactive); GI50 [53]: > 100 µM (inactive); GI50 [54]: > 100 µM (inactive); GI50 [63]: > 100 µM (inactive); GI50 [55]: > 100 µM (inactive); GI50 [56]: > 100 µM (inactive); GI50 [57]: > 100 µM (inactive); GI50 [64]: > 100 µM (inactive); GI50 [58]: > 100 µM (inactive)
